Patent US9534059B2, “TIKI inhibitors” (Children's Medical Center Corporation, priority 2012, dated 2017)
Positions count from the first letter of the chain named. Names and notes keep the numbering of the source. “Also recorded” adds a separate entry of the source.

T1: TIKI2N (Homo sapiens, UniProt A6NFA1)
T1 construct: which is the extracellular domain of TIKI2 fused with a carboxyl FLAG tag and a 6×HIS tag; made in house; host or cells: HEK293T
T1 sequence (A6NFA1 20-486 limits assumed): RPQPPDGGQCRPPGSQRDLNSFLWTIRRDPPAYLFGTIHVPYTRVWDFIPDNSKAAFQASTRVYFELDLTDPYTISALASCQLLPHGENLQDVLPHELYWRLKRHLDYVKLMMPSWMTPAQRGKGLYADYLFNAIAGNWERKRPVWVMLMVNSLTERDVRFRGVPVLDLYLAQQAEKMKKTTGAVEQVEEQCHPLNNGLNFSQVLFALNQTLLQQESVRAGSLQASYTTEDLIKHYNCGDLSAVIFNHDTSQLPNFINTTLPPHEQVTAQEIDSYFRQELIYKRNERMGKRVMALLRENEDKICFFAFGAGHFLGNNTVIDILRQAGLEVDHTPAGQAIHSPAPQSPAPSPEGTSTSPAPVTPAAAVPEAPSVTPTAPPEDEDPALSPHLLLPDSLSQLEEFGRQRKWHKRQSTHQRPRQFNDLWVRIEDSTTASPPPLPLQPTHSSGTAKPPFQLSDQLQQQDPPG

B1: H58A: alanine mutation in Human TIKI2N construct (no transmembrane domain) (protein, UniProt A6NFA1 20-494, looked up, variant H58A)
extracellular domain: RPQPPDGGQCRPPGSQRDLNSFLWTIRRDPPAYLFGTIAVPYTRVWDFIPDNSKAAFQASTRVYFELDLTDPYTISALASCQLLPHGENLQDVLPHELYWRLKRHLDYVKLMMPSWMTPAQRGKGLYADYLFNAIAGNWERKRPVWVMLMVNSLTERDVRFRGVPVLDLYLAQQAEKMKKTTGAVEQVEEQCHPLNNGLNFSQVLFALNQTLLQQESVRAGSLQASYTTEDLIKHYNCGDLSAVIFNHDTSQLPNFINTTLPPHEQVTAQEIDSYFRQELIYKRNERMGKRVMALLRENEDKICFFAFGAGHFLGNNTVIDILRQAGLEVDHTPAGQAIHSPAPQSPAPSPEGTSTSPAPVTPAAAVPEAPSVTPTAPPEDEDPALSPHLLLPDSLSQLEEFGRQRKWHKRQSTHQRPRQFNDLWVRIEDSTTASPPPLPLQPTHSSGTAKPPFQLSDQLQQQDPPGPASSSAPT
modifications: extracellular domain
B2: E85A: alanine mutation in Human TIKI2N construct (no transmembrane domain) (protein, UniProt A6NFA1 20-494, looked up, variant E85A)
extracellular domain: B1 extracellular domain with A39H, E66A
modifications: extracellular domain
B3: H331A: alanine mutation in Human TIKI2N construct (no transmembrane domain) (protein, UniProt A6NFA1 20-494, looked up, variant H331A)
extracellular domain: B1 extracellular domain with A39H, H312A
modifications: extracellular domain
B4: E205A: alanine mutation in Human TIKI2N construct (no transmembrane domain) (protein, UniProt A6NFA1 20-494, looked up, variant E205A)
extracellular domain: B1 extracellular domain with A39H, E186A
modifications: extracellular domain
B5: T56A: alanine mutation in Human TIKI2N construct (no transmembrane domain) (protein, UniProt A6NFA1 20-494, looked up, variant T56A)
extracellular domain: B1 extracellular domain with T37A, A39H
modifications: extracellular domain
B6: R303A: alanine mutation in Human TIKI2N construct (no transmembrane domain) (protein, UniProt A6NFA1 20-494, looked up, variant R303A)
extracellular domain: B1 extracellular domain with A39H, R284A
modifications: extracellular domain

What was measured:
TIKI2N = target: T1, TIKI2N; test: In vitro treatment of HA-Wnt3a with purified TIKI2N (cleavage, Western blotting); assay type: biochemical; conditions: for TIKI2N activity (cleavage of HA-Wnt3a) in the presence of protease inhibitor / Effects of divalent metals on TIKI2N activity: in vitro; for TIKI2N activity (cleavage of HA-Wnt3a) in the presence of protease inhibitor: purified TIKI2N + recombinant HA-Wnt3a, Western blotting; for Rescue of TIKI2N activity with divalent metals after inhibition with 1,10-Phenanthroline: 20 μM 1,10-Phenanthroline 1 hr, then 50 μM metal ion for another 2 hrs; for Effects of divalent metals on TIKI2N activity: 50 μM of each divalent metal ion, 2 hrs
Procedure: HEK293T cells in 100 mm dishes were transfected with TIKI2N-, KRM2N-, TIKI2NΔ-FLAG-6×HIS (“6×HIS” disclosed as SEQ ID NO: 57) or HA-Wnt3a vectors. The medium containing transfection mixture was replaced with 6 ml fresh medium 24 hrs post-transfection, and incubated for another 24 hrs. To purify TIKI2N, KRM2N and TIKI2NΔ, cells were washed with PBS and lysed in ice-cold PBS containing 0.2% NP-40, 20 mM imidazole and the protease inhibitor cocktail (Roche) to make whole cell lysates (WCL). WCL was mixed with Ni-NTA agarose beads (QIAGEN) and incubated at 4° C. with rotation for 1 hr. The beads were pelleted by centrifugation and washed four times with PBS/0.2% NP-40 and the FLAG-6×HIS (“6×HIS” disclosed as SEQ ID NO: 57) fusion proteins were eluted with PBS/0.2% NP-40 containing 100 mM imidazole. The elute was diluted 3 time with PBS/0.2% NP-40 and were mixed with FLAG M2 agarose beads (Sigma). Following 2 hrs incubation with rotation at 4° C., the beads were pelleted by centrifugation and washed three times with PBS/0.2% NP-40 and one time with HEPES buffer (50 mM HEPES (pH 7.4), 100 mM NaCl, 0.2% NP-40). The FLAG fusion proteins were eluted with HEPES buffer containing 50 μg/ml 3×FLAG peptide. To purify HA-Wnt3a, the conditioned medium (CM) was collected and was cleared by centrifugation and 0.2% NP-40 was added. The CM was mixed with anti-HA agarose beads (Sigma). Following 2 hrs incubation with rotation at 4° C., the beads were pelleted by centrifugation and washed three times with PBS/0.2% NP-40 and one time with HEPES buffer (50 mM HEPES (pH 7.4), 100 mM NaCl, 0.2% NP-40). The HA-Wnt3a protein was eluted with HEPES buffer containing 300 μg/ml HA peptide.
About 50 ng purified TIKI2N, KRM2N, or TIKI2NΔ protein was mixed with 10 ng purified HA-Wnt3a in a total volume of 10 μl HEPES buffer (50 mM HEPES (pH 7.4), 100 mM NaCl, 0.2% NP-40) and incubated at 30° C. To examine TIKI2N activity in different pH conditions, the following buffer was used instead of HEPES, 100 mM sodium acetate (pH 5.5), 100 mM Tris-HCl (pH 6, 7, 8, 9) or 50 mM CAPS (pH 10, 11). The reaction product was analyzed by SDS-PAGE and Western blotting with anti-HA and anti-Wnt3a antibodies. For mass spectrometric analysis, 200 ng of recombinant Wnt3a (from Stem RD) was incubated with about 500 ng of TIKIN or KRM2N overnight at 30° C. and separated by SDS-PAGE. The Wnt3a bands were cut, trypsin digested and subjected to mass spectrometric analyses.
TIKI protease activity was characterized under in vitro conditions. […] Different protease inhibitors were applied to survey which protease family TIKI might belong to. […] Metalloproteases are defined by their dependence on divalent metals as co-factors (Barrett, 1998).

[1] = tested on: Tiki1 and Dkk1 expression; test: RT-PCR of Tiki1 and Dkk1 expression in treated whole embryos (FIG. 2M); assay type: in vivo, Xenopus
Procedure: (M) Tiki1 expression is regulated by maternal Wnt signaling. Whole embryos were used for LiCl or UV treatment. 20 or 40 pg of Xwnt8 mRNA was injected into the ventral marginal zone (VMZ) at 4 to 8-cell stage and the VMZ was dissected at stage 10.5 for RT-PCR. ΔNTCF mRNA (1 or 2 ng) was injected into the dorsal marginal zone (DMZ) at 4 to 8-cell stage and the DMZ was dissected at stage 10.5 for RT-PCR. Con: control.
Organizer formation requires maternal Wnt/β-catenin signaling (De Robertis and Kuroda, 2004; Harland and Gerhart, 1997), which is necessary and sufficient for Tiki1 (and Dkk1) expression. Ectopic Xwnt8 induced Tiki1 and Dkk1 expression ventrally, whereas a dominant negative TCF (T cell factor, a DNA-binding transcription factor that mediates beta-catenin signaling), ΔNTCF (Molenaar et al., 1996), suppressed the endogenous Tiki1 and Dkk1 dorsal expression (FIG. 2M). Furthermore LiCl, which stabilizes β-catenin thus dorsalizes embryos, induced Tiki1 and Dkk1 expression, while ultraviolet irradiation, which through microtubule disruption causes defective maternal Wnt signaling thus ventralizes embryos (Harland and Gerhart, 1997), suppressed Tiki1 and Dkk1 expression (FIG. 2M).

Wnt3a = test: TOPFLASH assay of TIKI2N mutants co-transfected with Wnt3a in HEK293T cells; assay type: cell-based, human; conditions: 5, 2.5, 1.25 and 0.612 ng plasmid with Wnt3a 20 ng
Procedure: FIG. 8B. Bar graph showing the results of a TOPFLASH assay testing TIKI2 mutations in Human TIKI2N construct (no transmembrane domain). Decreasing doses of 5, 2.5, 1.25 and 0.612 ng of the indicated TIKI2N expression plasmid were cotransfected with Wnt3a (20 ng) in HEK293T cells.
HEK293T, HeLa, L and L-Wnt3a cells (from ATCC) were maintained in Dulbecco's modified Eagle's medium (DMEM; Invitrogen) supplemented with 10% fetal bovine serum (FBS) and 1% penicillin-streptomycin-glutamine (Invitrogen). Lipofectamine 2000 (Invitrogen) or Fugene6 (Roche) was used for all cell transfections. L and L-Wnt3a cells that stably express TIKI2 were generated by infecting cells with retroviruses and selected by puromycin. L cells stably expressing Wnt3a(FLAG) were established by transfecting L cells with a Wnt3a(FLAG) expressing vector and selected with neomycine. L cells stably expressing both Wnt3a(FLAG) and TIKI2 were also generated. TOPFLASH reporter assay was performed as previously described (MacDonald et al., 2008).
A Wnt-responsive reporter (TOP-FLASH) assay was performed to test mutations at T56A, H58A, E85A, E205A, H256A, R303A, H331A in a Human TIKI2N construct (no transmembrane domain). Decreasing doses of 5, 2.5, 1.25 and 0.612 ng of the indicated TIKI2N expression plasmid were co-transfected with Wnt3a (20 ng) in HEK293T cells. […] T56A, H256A, and R303A had no effect on TIM activity, and so are likely to be less important sites for function.

| Molecule | Effects of divalent metals on TIKI2N activity (TIKI2N) | TIKI activity of TIKI2N mutants (inhibition of Wnt3a-induced TOPFLASH) (Wnt3a) | other results |
| --- | --- | --- | --- |
| c1cnc2c(c1)ccc1cccnc12 [1,10-phenanthroline] |  |  | TIKI2N activity (cleavage of HA-Wnt3a) in the presence of protease inhibitor (TIKI2N): potently inhibited; TIKI2N activity (cleavage of HA-Wnt3a) in the presence of protease inhibitor (TIKI2N; listed as 1, 10-Phenanthroline): sensitive |
| CC(C)C[C@H](NC(=O)[C@@H](O)[C@H](N)Cc1ccccc1)C(=O)O [Bestatin] |  |  | TIKI2N activity (cleavage of HA-Wnt3a) in the presence of protease inhibitor (TIKI2N): not |
| [Co+2] [Co^2+] | enhanced |  | Rescue of TIKI2N activity with divalent metals after inhibition with 1,10-Phenanthroline (TIKI2N): rescued; also recorded: fully restored |
| [Cu+2] [Cu^2+] | inhibited TIKI2N activity |  |  |
| O=C(O)CN(CCN(CC(=O)O)CC(=O)O)CC(=O)O [EDTA] |  |  | TIKI2N activity (cleavage of HA-Wnt3a) in the presence of protease inhibitor (TIKI2N): inhibited TIKI2N activity; also recorded: inhibited, albeit more mildly |
| [Cl-].[Li+] [LiCl] |  |  | Tiki1 and Dkk1 expression [1]: induced |
| [Mn+2] [Mn^2+] | enhanced |  | Rescue of TIKI2N activity with divalent metals after inhibition with 1,10-Phenanthroline (TIKI2N): rescued; also recorded: fully restored |
| [Ni+2] [Ni^2+] | inhibited TIKI2N activity |  |  |
| [Zn+2] [Zn^2+] | inhibited TIKI2N activity |  |  |
| B1 |  | inactive |  |
| B2 |  | inactive |  |
| B3 |  | inactive |  |
| B4 |  | inactive |  |
| B5 |  | no effect |  |
| B6 |  | no effect |  |
